These results are taken from patent publication US20230140216A1, “COMBINATION THERAPY FOR TREATING MPS1” (GAIN THERAPEUTICS SA, priority 2020, published 2023).

Structures are written as SMILES.

The Kd is the concentration at which binding is half-saturated.

Test [1] addresses T1, Recombinant human α-L-iduronidase protein (Homo sapiens, UniProt P35475).
T1 construct: purchased R&D
T1 sequence (P35475 28-653): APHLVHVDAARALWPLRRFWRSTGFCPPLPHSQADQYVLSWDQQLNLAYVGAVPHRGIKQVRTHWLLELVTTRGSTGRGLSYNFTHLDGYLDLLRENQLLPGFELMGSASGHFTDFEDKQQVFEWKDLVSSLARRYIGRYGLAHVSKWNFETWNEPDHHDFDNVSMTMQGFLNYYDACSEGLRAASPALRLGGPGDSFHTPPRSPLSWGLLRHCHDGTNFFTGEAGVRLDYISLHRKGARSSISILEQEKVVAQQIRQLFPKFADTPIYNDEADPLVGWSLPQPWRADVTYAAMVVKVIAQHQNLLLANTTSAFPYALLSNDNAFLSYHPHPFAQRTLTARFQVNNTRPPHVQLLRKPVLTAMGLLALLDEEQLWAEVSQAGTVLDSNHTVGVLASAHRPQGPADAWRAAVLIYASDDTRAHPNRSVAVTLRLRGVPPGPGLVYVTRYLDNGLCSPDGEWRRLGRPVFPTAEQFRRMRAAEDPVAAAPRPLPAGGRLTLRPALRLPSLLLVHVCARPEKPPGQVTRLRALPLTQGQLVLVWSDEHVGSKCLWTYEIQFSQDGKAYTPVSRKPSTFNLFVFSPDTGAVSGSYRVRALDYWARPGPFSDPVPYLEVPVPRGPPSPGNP
Kind of test: Differential scanning fluorimetry (DSF) thermal stabilization. Type of test: binding. Summed up: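 Purified recombinant human α-L-iduronidase (final 0.75 µM) in 100 mM Hepes, 20 mM MgCl2, pH 7 with SYPRO Orange was heated with compounds (final 1% DMSO). Thermal denaturation was followed by probe fluorescence during a temperature ramp, and stabilization expressed as ΔTm, binned into four categories (A–D).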
(In DSF a fluorescence change marks the thermal transition of the protein.)

The subject of test [2] is Patient-derived fibroblasts. Kind of test: Enzyme enhancement activity in combination with rhIDUA in patient-derived fibroblasts. The test is classed as cell-based, human. How it is done: Patient-derived fibroblasts were seeded at 4×10^4 cells per well in 12-well cell culture plates in Dulbecco’s Modified Eagle’s Media (DMEM) supplemented with 10% of fetal bovine serum (FBS), 1% penicillin/streptomycin (P/S) (Thermo Fisher Scientific, Waltham, MA, USA) and incubated at 37° C., 5% CO2 overnight for cell attachment. Subsequently, cells were incubated in the absence or presence of the compounds and/or 1.25 nM recombinant human α-L-iduronidase protein (obtained in the Institute of Biotechnology and Biomedicine in the UAB) for 4 days. After incubation, cells were washed with phosphate-buffered saline (“PBS”) and detached using Trypsin-EDTA solution (Sigma Aldrich, St. Louis, MO, USA) to prepare cell pellets. The pellets were stored at -80° C. until activity assays were performed. α-L-iduronidase activity in cell lysates was measured by using 4-methylumbelliferyl alpha-L-iduronide substrate (Glycosynth, Warrington, UK). Briefly, lysates were resuspended in 25 µL of 0.9% NaCl containing 0.01% triton X-100 lysis buffer to promote membrane disruption. The cell suspension was sonicated and centrifuged to remove insoluble materials. Then, lysates were mixed with 25 µL of 200 µM 4-MU- alpha-L-iduronide substrate in 0.4 M sodium formate pH 3.5 0.2% triton X-100 buffer for 60 min at 37° C. The reaction was terminated by adding 200 µL of 0.5 M Glycine/0.3M NaOH buffer pH=10. The liberated 4-MU was measured on a Glomax® Discover Microplate Reader from Promega with excitation at 340 nm and emission at 460 nm. Protein quantification was determined using Pierce BCA Protein Assay Kit (Thermo Fisher Scientific, Waltham, MA, USA). Measurements were interpolated in a 4-MU standard curve and normalized by protein quantity.
Compound A increases uptake of rhIDUA protein and its enzymatic activity under a wide range of conditions (rhIDUA concentration and cell-types). Benefits are particularly evident at longer incubation times (4 days).

For `CCN(CC(=O)Nc1c(Cl)cccc1Cl)Cc1nc2ccsc2c(=O)[nH]1` [Compound A], the “stabilization of recombinant human IDUA (thermal shift)” value in test [1] (DSF dose response, maximum shift) was “up to 4 °C”. In test [1] (thermal shift dose response curve), the dissociation constant (Kd) was 22 µM. Also, in test [2] (96h), the “activity across a panel of patient-derived fibroblasts” value was “active across a panel of patient-derived fibroblasts” and the “amount of α-L-iduronidase in fibroblasts” value is given as “increases the amount of α-L-iduronidase in fibroblasts”. The EC50 in test [2] (Homo sapiens, Fibroblast, fibroblasts, 96h, co-administration with rhIDUA, read-out: cell-based EC50 (IDUA activity/uptake with rhIDUA)) turned out to be 16 µM. Also, the “IDUA cell uptake on co-administration” value in test [2] (Hurler-Scheie fibroblasts, 50 µM compound, 96h, vs. single agent) is given as “marked increase of IDUA cell uptake”. Besides, in test [2] (fibroblasts), the “effect versus incubation time” value was “increases at longer incubation times”.
